Measurements as given in ChEMBL document CHEMBL1201862, “PubChem BioAssay data set” (2004).
Activity calls are given as the source filed them.

Experiments:
[1] = target: T1, Sentrin-specific protease 7 (Homo sapiens, UniProt Q9BQF6); format: functional;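 further: Luminescence-based dose-response confirmation of ultra-high-throughput screening hits, measuring inhibition of SENP7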
T1 sequence (Q9BQF6 whole entry): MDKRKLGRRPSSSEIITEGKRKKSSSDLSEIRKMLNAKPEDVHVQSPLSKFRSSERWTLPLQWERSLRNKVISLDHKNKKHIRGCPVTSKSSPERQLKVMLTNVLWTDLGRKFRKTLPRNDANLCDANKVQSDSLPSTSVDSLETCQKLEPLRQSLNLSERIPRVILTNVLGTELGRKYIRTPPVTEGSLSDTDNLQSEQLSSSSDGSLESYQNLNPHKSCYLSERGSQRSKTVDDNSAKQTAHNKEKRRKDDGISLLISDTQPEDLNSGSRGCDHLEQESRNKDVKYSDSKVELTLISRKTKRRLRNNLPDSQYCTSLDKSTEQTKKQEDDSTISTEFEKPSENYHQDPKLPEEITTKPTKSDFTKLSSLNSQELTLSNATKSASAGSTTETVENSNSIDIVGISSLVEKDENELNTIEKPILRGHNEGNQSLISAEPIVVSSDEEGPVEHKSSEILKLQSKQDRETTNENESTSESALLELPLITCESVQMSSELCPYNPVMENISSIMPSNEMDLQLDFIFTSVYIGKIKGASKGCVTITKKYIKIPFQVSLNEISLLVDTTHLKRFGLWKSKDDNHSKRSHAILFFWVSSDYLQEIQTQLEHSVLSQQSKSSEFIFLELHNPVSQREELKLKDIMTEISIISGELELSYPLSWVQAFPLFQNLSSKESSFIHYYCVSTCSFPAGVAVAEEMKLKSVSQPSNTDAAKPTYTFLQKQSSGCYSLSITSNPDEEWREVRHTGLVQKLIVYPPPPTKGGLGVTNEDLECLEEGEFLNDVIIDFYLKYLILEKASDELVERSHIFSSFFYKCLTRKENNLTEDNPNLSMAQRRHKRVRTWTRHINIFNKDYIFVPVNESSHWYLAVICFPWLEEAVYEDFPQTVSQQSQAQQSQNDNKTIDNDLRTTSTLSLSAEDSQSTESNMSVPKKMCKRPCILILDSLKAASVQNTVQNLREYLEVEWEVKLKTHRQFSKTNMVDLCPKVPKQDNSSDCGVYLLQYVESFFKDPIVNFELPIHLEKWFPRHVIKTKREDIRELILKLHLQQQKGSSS

[2] = target: T2, Sentrin-specific protease 6 (Homo sapiens, UniProt Q9GZR1); format: functional;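 further: Luminescence-based dose-response confirmatory assay of SENP6 inhibition, following up an ultra-high-throughput screen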
T2 sequence (Q9GZR1 whole entry): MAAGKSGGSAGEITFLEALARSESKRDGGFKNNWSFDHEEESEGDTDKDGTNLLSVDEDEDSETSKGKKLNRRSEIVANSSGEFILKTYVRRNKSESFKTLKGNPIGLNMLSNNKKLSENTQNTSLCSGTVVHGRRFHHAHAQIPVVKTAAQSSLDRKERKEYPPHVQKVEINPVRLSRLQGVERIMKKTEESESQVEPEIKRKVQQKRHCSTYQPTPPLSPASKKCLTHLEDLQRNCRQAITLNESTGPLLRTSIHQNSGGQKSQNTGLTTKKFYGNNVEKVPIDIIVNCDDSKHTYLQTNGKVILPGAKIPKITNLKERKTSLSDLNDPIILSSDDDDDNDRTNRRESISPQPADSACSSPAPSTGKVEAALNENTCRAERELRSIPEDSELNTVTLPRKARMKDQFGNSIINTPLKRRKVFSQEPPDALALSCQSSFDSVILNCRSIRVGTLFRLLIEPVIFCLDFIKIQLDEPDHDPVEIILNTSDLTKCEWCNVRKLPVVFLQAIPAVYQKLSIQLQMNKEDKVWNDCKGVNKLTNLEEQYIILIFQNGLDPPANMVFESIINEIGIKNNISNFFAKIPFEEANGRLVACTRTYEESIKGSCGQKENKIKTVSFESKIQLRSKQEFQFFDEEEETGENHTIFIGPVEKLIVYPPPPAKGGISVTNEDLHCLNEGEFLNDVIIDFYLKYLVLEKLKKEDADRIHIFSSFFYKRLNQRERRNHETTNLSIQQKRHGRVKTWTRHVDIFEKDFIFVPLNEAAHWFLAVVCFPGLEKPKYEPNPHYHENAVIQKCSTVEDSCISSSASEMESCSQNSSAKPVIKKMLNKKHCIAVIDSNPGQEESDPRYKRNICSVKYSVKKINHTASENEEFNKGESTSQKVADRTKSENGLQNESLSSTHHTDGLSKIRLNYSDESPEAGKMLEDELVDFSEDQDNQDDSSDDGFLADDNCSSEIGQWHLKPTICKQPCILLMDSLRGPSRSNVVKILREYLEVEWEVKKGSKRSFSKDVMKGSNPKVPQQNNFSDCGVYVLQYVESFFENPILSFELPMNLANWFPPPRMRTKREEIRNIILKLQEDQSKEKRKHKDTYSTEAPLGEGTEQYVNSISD

[3] = target: T3, Sentrin-specific protease 8 (Homo sapiens, UniProt Q96LD8); format: functional;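 further: luminescence read-out of SENP8 inhibition, dose-response confirmation following an ultra-high-throughput screen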
T3 sequence (Q96LD8 whole entry): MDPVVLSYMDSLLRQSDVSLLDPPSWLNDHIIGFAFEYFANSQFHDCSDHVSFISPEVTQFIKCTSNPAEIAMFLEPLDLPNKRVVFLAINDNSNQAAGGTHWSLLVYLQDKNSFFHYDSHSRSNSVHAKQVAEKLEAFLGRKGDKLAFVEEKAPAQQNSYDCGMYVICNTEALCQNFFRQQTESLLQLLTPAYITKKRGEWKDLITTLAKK

[4] = target: T4, Caspase-3 (Homo sapiens, UniProt P42574); format: functional;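 further: Dose-response selectivity test against caspase-3 for candidate inhibitors of sentrin-specific proteases (SENPs)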
T4 sequence (P42574 whole entry): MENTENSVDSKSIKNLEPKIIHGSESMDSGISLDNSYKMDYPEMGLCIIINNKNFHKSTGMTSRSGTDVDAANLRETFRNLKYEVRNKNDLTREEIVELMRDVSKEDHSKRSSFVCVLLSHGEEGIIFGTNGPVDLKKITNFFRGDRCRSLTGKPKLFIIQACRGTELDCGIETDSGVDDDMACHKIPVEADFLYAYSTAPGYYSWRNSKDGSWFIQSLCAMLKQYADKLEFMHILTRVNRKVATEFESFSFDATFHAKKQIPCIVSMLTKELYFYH

[5] = LGR2 antagonists, dose response, cell-based, HEK293, CRE-luciferase reporter, cherry pick, set 2 (AID 743343); format: functional;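 further: transfected cells were stimulated with diluted bursicon conditioned medium after compound addition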
[6] = HepG2 cell cytotoxicity, dose response, cytotoxicity control, plate reader, cherry-pick, antagonist series (AID 743416); format: functional, cell-based
[7] = HEK293 cell cytotoxicity, dose response, cytotoxicity control, plate reader, cherry-picked samples (AID 743446); format: functional, cell-based
[8] = MC4R antagonists, dose response, counter-screen for LGR2 antagonist project, cell-based, plate reader, cherry pick (AID 743444); format: functional;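 further: transfected HEK 293 cells stimulated with alpha-MSH peptide; potency of inhibitors of the alpha-MSH evoked signal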
[9] = A549 cell cytotoxicity, dose response, cytotoxicity control, plate reader, cherry-pick, antagonist series (AID 743412); format: functional, cell-based
[10] = P. falciparum Dd2 growth inhibitors, dose response, SYBR Green, cherry-picked samples (AID 1159567); format: functional, cell-based
[11] = HepG2 cell cytotoxicity, dose response, cytotoxicity control, cherry-picked samples (AID 1159577); format: functional, cell-based
[12] = inhibitors of HIV Env-driven cell fusion, dose response, cherry-pick (AID 652057); format: functional, cell-based
[13] = inhibitors of clade B AD8 Env fusion, dose response, cell-based, cherry-pick (AID 652062); format: functional;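 further: luciferase signal from cell-cell fusion driven by HIV-1 clade B AD8 Env; potency is for inhibitors of fusion seen as a drop in luminescence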
[14] = off-target signal loss in HeLa-CEM21 co-culture – HeLa F-luc CTL cells, cherry-picked, counter-screen for HIV-1 Env fusion inhibitor project, dose response (AID 652040); format: functional, cell-based;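 further: potency for signal decrease marking cytotoxic or nonspecific inhibition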
[15] = CEM21 lymphoblast cell cytotoxicity, dose response, cytotoxicity control for viral fusion inhibitor project, CellTiter-Glo luminescence, cherry-picked (AID 652042); format: functional, cell-based;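 further: potency for signal decrease meaning cytotoxicity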
[16] = tested on: P388; assay: cells; format: functional; conditions: Mus musculus
[17] = tested on: SN12K1; assay: cells; format: functional; conditions: Homo sapiens
[18] = tested on: P388/ADR; assay: cells; format: functional; conditions: Mus musculus
[19] = ZM109 Env clade C HIV-1 fusion inhibitors, dose response, HeLa effector, CEM target cells, luciferase, cherry-pick (AID 652058); format: functional, cell-based
[20] = target: Paired box protein Pax-8 (Homo sapiens, UniProt Q06710); assay: inhibitors of PAX8-driven TPO luciferase reporter, dose response, RMG-I cells, cherry-pick (AID 687027); format: functional, cell-based;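 further: luciferase reporter driven by Pax8 target thyroperoxidase promoter measured by SteadyGlo luminescence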
[21] = Luminescence Cell-Based Dose Retest to Confirm Inhibitors of Cancer Stem Cells. [Related pubchem assays (depositor defined):AID2717, AID2721]; format: functional; conditions: Homo sapiens
[22] = target: Photoreceptor-specific nuclear receptor (Homo sapiens, UniProt Q9Y5X4); format: functional, cell-based;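 further: CHO-S cells with Gal4-NCOR and VP16-NR2E3 two-hybrid luciferase reporter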
[23] = tested on: HEK293; assay: inhibitors of LMP1-driven NF-kB reporter, dose response, cell-based, HEK293, luciferase, cherry-pick (AID 588343); format: functional; conditions: Homo sapiens

Chain of Photoreceptor-specific nuclear receptor (Q9Y5X4 whole entry, the tested form may be a part): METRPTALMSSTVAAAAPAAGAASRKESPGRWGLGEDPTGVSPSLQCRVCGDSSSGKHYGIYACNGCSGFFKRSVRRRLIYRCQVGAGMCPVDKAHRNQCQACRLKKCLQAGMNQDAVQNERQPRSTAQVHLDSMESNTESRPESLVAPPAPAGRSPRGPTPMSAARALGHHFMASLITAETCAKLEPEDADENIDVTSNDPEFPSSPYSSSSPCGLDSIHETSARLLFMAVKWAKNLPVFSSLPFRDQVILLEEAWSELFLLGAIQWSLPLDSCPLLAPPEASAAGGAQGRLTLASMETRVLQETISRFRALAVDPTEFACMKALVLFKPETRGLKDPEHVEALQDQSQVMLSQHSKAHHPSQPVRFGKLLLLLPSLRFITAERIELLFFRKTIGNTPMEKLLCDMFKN
Chain of Paired box protein Pax-8 (Q06710 whole entry): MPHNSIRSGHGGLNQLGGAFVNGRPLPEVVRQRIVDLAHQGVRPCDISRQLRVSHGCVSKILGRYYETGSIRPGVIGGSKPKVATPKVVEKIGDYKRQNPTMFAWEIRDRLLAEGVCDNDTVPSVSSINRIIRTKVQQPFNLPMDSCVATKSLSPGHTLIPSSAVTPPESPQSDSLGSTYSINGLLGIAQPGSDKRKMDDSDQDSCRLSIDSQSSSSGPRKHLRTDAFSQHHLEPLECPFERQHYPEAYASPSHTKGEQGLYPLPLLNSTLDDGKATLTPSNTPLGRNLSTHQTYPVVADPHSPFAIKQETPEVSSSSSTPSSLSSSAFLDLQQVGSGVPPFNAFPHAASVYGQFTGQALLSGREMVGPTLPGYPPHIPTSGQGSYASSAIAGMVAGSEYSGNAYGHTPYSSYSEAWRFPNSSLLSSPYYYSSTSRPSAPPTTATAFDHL

## CCCCCc1ccc(-c2ccc(OC)cc2)nc1
[1]
  IC50: 9.32 µM (active)
[2]
  IC50: 41.8 µM (active)
[3]
  IC50: 80.5 µM (active)
[4]
  IC50: 37.2 µM (active)

## O=C(c1cc(-c2ccccc2Cl)nc2ccc(Br)cc12)N1CCN(c2ccccn2)CC1
[5]
  AC50: 28.3 µM (active)
[6]
  AC50: 50.3 µM (active)
[7]
  AC50: 22.8 µM (active)
[8]
  AC50: 29.2 µM (active)
[9]
  AC50: 34.5 µM (active)

## C[C@H](CO)N1C[C@H](C)[C@@H](CN(C)Cc2ccccc2)Oc2ccc(NC(=O)Nc3ccc(F)cc3)cc2CC1=O
[10]
  AC50: 4.02 µM (active)
[11]
  AC50: > 39 µM (inactive)

## O=C(NCCSc1ccccc1)c1ccc(Br)cc1
[1]
  IC50: 7.71 µM (active)
[2]
  IC50: 22.4 µM (active)
[3]
  IC50: 26.8 µM (active)
[4]
  IC50: 17.7 µM (active)

## COc1cccc(CN2CCC2(C)C(=O)Nc2cccc(Oc3ccccc3)c2)c1OC (stereo unspecified)
[12]
  AC50: 3.47 µM (active)
[13]
  AC50: 20.4 µM (active)
[14]
  AC50: > 70 µM (inactive)
[15]
  AC50: 61.8 µM (active)

## COc1c2ccoc2c(S(=O)(=O)Nc2ccc(Cl)cc2)c2oc(C)cc(=O)c12
[16]
  GI50: 69.3 µM (inactive)
[17]
  GI50: > 100 µM (inactive)
[18]
  GI50: 72.4 µM (inactive)

## O=C(O)CCCCCCC[C@@H]1S[C@H]1CCCCCCO
[16]
  GI50: > 100 µM (inactive)
[17]
  GI50: > 100 µM (inactive)
[18]
  GI50: > 100 µM (inactive)

## Nc1nc(N)nc(-c2ccccc2NS(=O)(=O)c2ccc([N+](=O)[O-])cc2)n1
[16]
  GI50: 57.1 µM (inactive)
[17]
  GI50: > 56.5 µM (inactive)
[18]
  GI50: 38.5 µM (inactive)

## CCCCCCCCCCCCCCCC(=O)OCC1OC(n2ccc(N)nc2=O)C(O)C1O (stereo unspecified)
[12]
  AC50: 0.557 µM (active)
[13]
  AC50: 0.922 µM (active)
[14]
  AC50: 0.44 µM (active)
[19]
  AC50: < 0.26 µM (active)
[15]
  AC50: 24 µM (active)

## Cn1nnnc1Sc1ncnc2scc(-c3cccc(Br)c3)c12
[5]
  AC50: 5.22 µM (active)
[7]
  AC50: 11.1 µM (active)
[20]
  AC50: 2.75 µM (active)
[8]
  AC50: 6.1 µM (active)
[9]
  AC50: 9.25 µM (active)
[21]
  AC50: 1.86 µM (active)

## COc1ccc(/C=N/N2CCN(c3ccccc3OC)CC2)cc1Br
[1]
  IC50: 7.1 µM (active)
[2]
  IC50: 25 µM (active)
[3]
  IC50: 54.9 µM (active)
[4]
  IC50: 21.1 µM (active)

## CCCCCCCCCCNC1CC(OC2CC(O)(C(O)CO)Cc3c(O)c4c(c(O)c32)C(=O)c2c(OC)cccc2C4=O)OC(C)C1O (stereo unspecified)
[16]
  GI50: 0.168 µM (active)
[17]
  GI50: 1.25 µM (inactive)
[18]
  GI50: 1.52 µM (inactive)

## C[C@H]1CN([C@@H](C)CO)C(=O)Cc2cc(NC(=O)Nc3ccc(F)cc3)ccc2O[C@H]1CN(C)CC1CCCCC1
[6]
  AC50: 16.6 µM (active)
[7]
  AC50: 15.4 µM (active)
[8]
  AC50: 55.8 µM (active)
[9]
  AC50: 9.61 µM (active)

## O=C(Nc1ccc(C2CC2(Cl)Cl)cc1)c1cccc([N+](=O)[O-])c1 (stereo unspecified)
[1]
  IC50: 5.14 µM (active)
[2]
  IC50: 7.84 µM (active)
[3]
  IC50: 29.5 µM (active)
[4]
  IC50: 28.8 µM (active)

## O=S(=O)(c1ccc(F)cc1)N1CCCCN2[C@H](CO)[C@H](c3ccc(-c4ccccc4F)cc3)[C@H]2C1
[10]
  AC50: 1.97 µM (active)
[11]
  AC50: 11 µM (active)

## CCCCCCCCN1C(=O)[C@H](CC(=O)NCCCC)C[C@@]2(C(=O)OCC)CCCC=C12
[12]
  AC50: 7.2 µM (active)
[13]
  AC50: 16.3 µM (active)
[14]
  AC50: 66.4 µM (active)
[19]
  AC50: 23.2 µM (active)
[15]
  AC50: 37.5 µM (active)

## CC(C)CC/N=c1/cc2n(-c3ccc(Cl)cc3)c3ccccc3nc-2cc1Nc1ccc(Cl)cc1
[16]
  GI50: 2.82 µM (inactive)
[17]
  GI50: 6.4 µM (inactive)
[18]
  GI50: 2.19 µM (inactive)

## COCCn1c(C)cc(C(=O)COc2ccc(C)nc2[N+](=O)[O-])c1C
[22]
  IC50: 5.55 µM (active)
[23]
  AC50: 9.91 µM (active)
